Measured values taken from patent US11345702B1 (Myoforte Therapeutics, Inc., priority 2020, dated 2022).

Key:
15-PGDH/HPGD = 15-PGDH/HPGD (Homo sapiens (Human), UniProt P15428); assay: hPGDH inhibitor screening biochemical assay; conditions: read-out: hPGDH: Average IC50
In short: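 Ten-point dose-response inhibition of 15-PGDH measured by fluorescence (340/485 nm) after 10 min at room temperature with PGE2 (15 μM) and NAD+ (0.25 mM), following 10 min enzyme (10 nM)–compound pre-incubation at 37 °C. Buffer: 50 mM Tris-HCl pH 7.5, 0.01% Tween 20. Percent inhibition relative to 1% DMSO; four-parameter IC50.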

[1] = Liver microsome stability assay (MLM); format: in vitro ADME; conditions: mouse liver microsomes
Method: A microsomal mixture (microsomes and Kphos buffer) was prepared at a concentration of 1.428 mg/mL in 2 mL tubes. To this microsomal mixture 1.6 μL (1 mM) of test compound and positive control were spiked; from this mixture, 70 μL was transferred to 96 well plate and pre-incubated at 37° C. for 5 min. After pre-incubation, the zero minute time point reaction was stopped using 100 μL of ice-cold acetonitrile containing internal standard and […] (3.33 mM in Kphos buffer) was added. The 45 minute time point reaction was initiated by addition of 30 μL of NADPH (3.33 mM in Kphos buffer) and incubated at 37° C. for 15 and 45 min. Reactions without NADPH and buffer controls (minus NADPH) at 0, 15, and 45 minutes were also incubated to rule out non-NADPH metabolism or chemical instability in the incubation buffer. Incubation reactions were stopped with 100 μL of ice-cold acetonitrile containing internal standard. The plates were centrifuged at 4000 RPM for 15 min and 100 μL aliquots were submitted for analysis by LC-MS/MS. (Verapamil in human liver microsomes (HLM) and rat liver microsomes (RLM) was used as positive controls. Imipramine in mouse liver microsomes (MLM) was used as a positive control.) Samples were monitored for parent compound disappearance in MRM mode (multiple reaction monitoring) using LC-MS/MS. The peak area ratios of analyte versus internal standard were used to calculate the % remaining at the end of 45 minutes in the presence of NADPH.

15-PGDH/HPGD, sequence (P15428 whole entry): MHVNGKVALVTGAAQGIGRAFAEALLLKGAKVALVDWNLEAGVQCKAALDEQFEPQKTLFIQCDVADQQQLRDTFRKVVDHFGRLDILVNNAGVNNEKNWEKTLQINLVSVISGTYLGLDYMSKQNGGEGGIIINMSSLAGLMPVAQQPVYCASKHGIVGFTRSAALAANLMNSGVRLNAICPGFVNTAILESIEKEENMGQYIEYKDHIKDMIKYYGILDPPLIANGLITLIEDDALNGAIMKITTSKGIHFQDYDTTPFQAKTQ

| Structure (SMILES) | IC50 (15-PGDH/HPGD) | MLM + NADPH (% remaining at 45 min) [1] |
| --- | --- | --- |
| O=C(c1cnc2c(ccn2-c2cncc(N3CCOC3=O)c2)c1)N1CCC(F)(F)CC1 [MF-DH-472] | < 100 nM | 83% |
| O=C(O)c1cccc(-n2ccc3cc(C(=O)N4CCC(F)(F)CC4)cnc32)c1 [MF-DH-507, 3-(5-(4,4-difluoropiperidine-1-carbonyl)-1H-pyrrolo[2,3-b]pyridin-1-yl)benzoic acid] | < 100 nM | 97% |
| O=C(c1cnc2c(ccn2-c2ccc(-c3nnc(C(F)(F)F)[nH]3)nc2)c1)N1CCC(F)(F)CC1 [MF-DH-519, (4,4-difluoropiperidin-1-yl)(1-(6-(5-(trifluoromethyl)-4H-1,2,4-triazol-3-yl)pyridin-3-yl)-1H-pyrrolo[2,3-b]pyridin-5-yl)methanone] | < 100 nM | 89% |
| O=C(c1cnc2c(ccn2-c2cncc(-c3nc[nH]n3)c2)c1)N1CCC(F)(F)CC1 [MF-DH-516, (1-(5-(1H-1,2,4-triazol-3-yl)pyridin-3-yl)-1H-pyrrolo[2,3-b]pyridin-5-yl)(4,4-difluoropiperidin-1-yl)methanone] | < 100 nM | 88% |
| O=C(Nc1cc(C2CC2)[nH]n1)c1cccc(-n2ccc3cc(C(=O)N4CCC(F)(F)CC4)cnc32)c1 [MF-DH-498, N-(5-cyclopropyl-1H-pyrazol-3-yl)-3-(5-(4,4-difluoropiperidine-1-carbonyl)-1H-pyrrolo[2,3-b]pyridin-1-yl)benzamide] | < 100 nM | 0% |
| O=C(NCCO)c1ccc(-n2ccc3cc(C(=O)N4CCC(F)(F)CC4)cnc32)cc1 [MF-DH-413] | < 100 nM | 94% |
| Cc1nc(-c2cncc(-n3ccc4cc(C(=O)N5CCC(F)(F)CC5)cnc43)c2)no1 [MF-DH-470, (4,4-difluoropiperidin-1-yl)(1-(5-(5-methyl-1,2,4-oxadiazol-3-yl)pyridin-3-yl)-1H-pyrrolo[2,3-b]pyridin-5-yl)methanone] | < 100 nM | 74% |
| NC(=O)c1ccc(-n2ccc3cc(C(=O)N4CCCCC4)cnc32)cn1 [MF-DH-365] | < 100 nM | 41% |
| O=C(Nc1ccno1)c1cncc(-n2ccc3cc(C(=O)N4CCC(F)(F)CC4)cnc32)c1 [MF-DH-459, 5-(5-(4,4-difluoropiperidine-1-carbonyl)-1H-pyrrolo[2,3-b]pyridin-1-yl)-N-(isoxazol-5-yl)nicotinamide] | < 100 nM | 31% |

Next, values leading:

| IC50 (15-PGDH/HPGD) | MLM + NADPH (% remaining at 45 min) [1] | Structure (SMILES) |
| --- | --- | --- |
| < 100 nM | 66% | CC(C)(C)NC(=O)c1ccc(-n2ccc3cc(C(=O)N4CCC(F)(F)CC4)cnc32)cn1 [MF-DH-406, N-(tert-butyl)-5-(5-(4,4-difluoropiperidine-1-carbonyl)-1H-pyrrolo[2,3-b]pyridin-1-yl)picolinamide] |
| < 100 nM | 94% | O=C(O)c1ccc(-n2ccc3cc(C(=O)N4CCC(F)(F)CC4)cnc32)cn1 [MF-DH-434, 5-(5-(4,4-difluoropiperidine-1-carbonyl)-1H-pyrrolo[2,3-b]pyridin-1-yl)picolinic acid] |
| < 100 nM | 92% | O=C(c1cnc2c(ccn2-c2ccc(-c3n[nH]c(C4CC4)n3)nc2)c1)N1CCC(F)(F)CC1 [MF-DH-518, (1-(6-(5-cyclopropyl-1H-1,2,4-triazol-3-yl)pyridin-3-yl)-1H-pyrrolo[2,3-b]pyridin-5-yl)(4,4-difluoropiperidin-1-yl)methanone] |
| < 100 nM | 90% | O=C(c1cnc2c(ccn2-c2ccc(-c3nnn[nH]3)nc2)c1)N1CCC(F)(F)CC1 [MF-DH-452, (1-(6-(1H-tetrazol-5-yl)pyridin-3-yl)-1H-pyrrolo[2,3-b]pyridin-5-yl)(4,4-difluoropiperidin-1-yl)methanone] |
| < 100 nM | 87% | CC1(C)NC(=O)N(c2ccc(-n3ccc4cc(C(=O)N5CCC(F)(F)CC5)cnc43)cn2)C1=O [MF-DH-457] |
